# The NIST ThermoML archive (doi:10.1016/j.jct.2012.01.019)
# Numbers after ± are expanded uncertainties.
# Experiment: activity coefficient (dimensionless); of the first substance listed, at infinite dilution; xn = mol fraction of the nth substance listed
# Conditions: 101 kPa, Liquid, Chromatography, x1 = 0
SMILES,activity coefficient (318.15 K),activity coefficient (328.15 K),activity coefficient (338.15 K),activity coefficient (348.15 K),activity coefficient (358.15 K),activity coefficient (368.15 K)
CC1CCCCC1 [methylcyclohexane] + COCC[N+]1(C)CCCCC1.O=S(=O)([N-]S(=O)(=O)C(F)(F)F)C(F)(F)F,13.5 ± 0.6,12.7 ± 0.6,12 ± 0.6,11.2 ± 0.5,10.6 ± 0.5,10.2 ± 0.5
O [water] + COCC[N+]1(C)CCCCC1.O=S(=O)([N-]S(=O)(=O)C(F)(F)F)C(F)(F)F,3.35 ± 0.23,2.93 ± 0.2,2.62 ± 0.18,2.33 ± 0.16,2.07 ± 0.14,1.87 ± 0.13
C=Cc1ccccc1 [styrene] + COCC[N+]1(C)CCCCC1.O=S(=O)([N-]S(=O)(=O)C(F)(F)F)C(F)(F)F,1.08 ± 0.07,1.1 ± 0.07,1.13 ± 0.07,1.14 ± 0.07,1.16 ± 0.07,1.19 ± 0.08
C=CCCCCC [1-heptene] + COCC[N+]1(C)CCCCC1.O=S(=O)([N-]S(=O)(=O)C(F)(F)F)C(F)(F)F,12.4 ± 0.8,11.9 ± 0.8,11.4 ± 0.8,10.8 ± 0.7,10.4 ± 0.7,9.99 ± 0.68
CCCOCCC [dipropyl ether] + COCC[N+]1(C)CCCCC1.O=S(=O)([N-]S(=O)(=O)C(F)(F)F)C(F)(F)F,6.45 ± 0.44,6.28 ± 0.43,6.13 ± 0.42,5.98 ± 0.41,5.86 ± 0.4,5.75 ± 0.39
C=C(C)c1ccccc1 [(1-methylethenyl)benzene] + COCC[N+]1(C)CCCCC1.O=S(=O)([N-]S(=O)(=O)C(F)(F)F)C(F)(F)F,,1.61 ± 0.11,1.66 ± 0.11,1.7 ± 0.11,1.74 ± 0.12,1.78 ± 0.12
"CC(C)CC(C)(C)C [2,2,4-trimethylpentane] + COCC[N+]1(C)CCCCC1.O=S(=O)([N-]S(=O)(=O)C(F)(F)F)C(F)(F)F",23.7 ± 1.1,22.3 ± 1,20.9 ± 1,19.7 ± 0.9,18.5 ± 0.9,17.6 ± 0.8
CCC(=O)OC [methyl propanoate] + COCC[N+]1(C)CCCCC1.O=S(=O)([N-]S(=O)(=O)C(F)(F)F)C(F)(F)F,0.888 ± 0.057,0.904 ± 0.057,0.92 ± 0.058,0.936 ± 0.059,0.95 ± 0.06,0.966 ± 0.061
CCOCC [diethyl ether] + COCC[N+]1(C)CCCCC1.O=S(=O)([N-]S(=O)(=O)C(F)(F)F)C(F)(F)F,2.6 ± 0.18,2.59 ± 0.18,2.58 ± 0.18,2.58 ± 0.18,2.57 ± 0.17,2.56 ± 0.17
"Cc1ccc(C)cc1 [1,4-dimethylbenzene] + COCC[N+]1(C)CCCCC1.O=S(=O)([N-]S(=O)(=O)C(F)(F)F)C(F)(F)F",1.08 ± 0.07,1.1 ± 0.07,1.13 ± 0.07,1.14 ± 0.07,1.16 ± 0.07,1.19 ± 0.08
CC#N [acetonitrile] + COCC[N+]1(C)CCCCC1.O=S(=O)([N-]S(=O)(=O)C(F)(F)F)C(F)(F)F,0.471 ± 0.037,0.471 ± 0.037,0.473 ± 0.037,0.473 ± 0.037,0.474 ± 0.037,0.475 ± 0.037
c1ccncc1 [pyridine] + COCC[N+]1(C)CCCCC1.O=S(=O)([N-]S(=O)(=O)C(F)(F)F)C(F)(F)F,0.548 ± 0.04,0.555 ± 0.04,0.562 ± 0.04,0.57 ± 0.041,0.577 ± 0.041,0.583 ± 0.041
"Cc1cccc(C)c1 [1,3-dimethylbenzene] + COCC[N+]1(C)CCCCC1.O=S(=O)([N-]S(=O)(=O)C(F)(F)F)C(F)(F)F",1.8 ± 0.12,1.81 ± 0.12,1.82 ± 0.12,1.83 ± 0.12,1.85 ± 0.12,1.86 ± 0.13
CCCCO [butan-1-ol] + COCC[N+]1(C)CCCCC1.O=S(=O)([N-]S(=O)(=O)C(F)(F)F)C(F)(F)F,2.72 ± 0.19,2.45 ± 0.17,2.22 ± 0.15,2.01 ± 0.14,1.85 ± 0.12,1.71 ± 0.11
COC(C)=O [methyl ethanoate] + COCC[N+]1(C)CCCCC1.O=S(=O)([N-]S(=O)(=O)C(F)(F)F)C(F)(F)F,0.7 ± 0.047,0.714 ± 0.048,0.726 ± 0.048,0.74 ± 0.049,0.751 ± 0.049,0.763 ± 0.05
CCCCCCCC [octane] + COCC[N+]1(C)CCCCC1.O=S(=O)([N-]S(=O)(=O)C(F)(F)F)C(F)(F)F,35.4 ± 1.6,32.6 ± 1.5,30 ± 1.4,27.6 ± 1.3,25.6 ± 1.2,23.8 ± 1.1
